Drawing on US6362188B1, “Farnesyl protein transferase inhibitors” (Schering Corporation, priority 1998, dated 2002), this text covers melting point and IC50 for 50 compounds.

Test system in the first data set: not given
Experiment: not given
Settings: not given
`Cc1cn(CC2CCCN(C(=O)C3CN(C4c5ccc(Cl)cc5CCc5cccnc54)CCN3C(=O)OC3CCCCC3)C2)cn1` (centres unmarked) [Example 42] came in with a melting point of 99 to 113 °C. As to `Cc1cn(CC2CCCN(C(=O)C3CN(C4c5ccc(Cl)cc5CCc5cccnc54)CCN3C(=O)OC(C)C)C2)cn1` (centres unmarked) [41(B)], the melting point was 101 to 120 °C. Still for that read-out and setting: then `CC(C)(C)NC(=O)N1CCN([C@@H]2c3ccc(Cl)cc3CCc3cc(Br)cnc32)C[C@@H]1C(=O)N1CCC[C@H](Cn2ccnc2)C1` [Example 18], with 112 to 120 °C; and `Cc1nccn1CC1CCCN(C(=O)C2CN(C3c4ccc(Cl)cc4CCc4cccnc43)CCN2C(=O)OC2CCCCC2)C1` (single isomer, unassigned) [Example 46], with 91 to 94 °C; and `O=C([C@H]1CN(C2c3ccc(Cl)cc3CCc3cc(Cl)cnc32)CCN1C(=O)OC1CCCCC1)N1CCCC(Oc2cccnc2)C1` (some centres unmarked) [Example 254A], with 105 to 113 °C. On the same count and under the same terms, then `Cc1nccn1CC1CCCN(C(=O)C2CN(C3c4ccc(Cl)cc4CCc4cccnc43)CCN2C(=O)OC(C)C)C1` (single isomer, unassigned) [Example 41], with 95 to 100 °C; and `CC(C)(C)NC(=O)N1CCN(C2c3ccc(Cl)cc3CCc3cc(Br)cnc32)C[C@@H]1C(=O)N1CCC[C@@H]1Cn1ccnc1` (some centres unmarked) [Example 21], with 137 to 139 °C; and `Cc1cn(CC2CCCN(C(=O)C3CN(C4c5ccccc5CCc5cc(Cl)cnc54)CCN3C(=O)OC(C)(C)C)C2)cn1` (single isomer, unassigned) [Example 293], with 110 to 123 °C.

The next data set deals with Human tumor cells. Kind of data set: Soft Agar Assay (anchorage-independent growth). The class given is cell-based. The note with it: colony outgrowth in soft agar, stated as a range for the group. The procedure: Anchorage-independent growth is a characteristic of tumorigenic cell lines. Human tumor cells can be suspended in growth medium containing 0.3% agarose and an indicated concentration of a farnesyl transferase inhibitor. The solution can be overlayed onto growth medium solidified with 0.6% agarose containing the same concentration of farnesyl transferase inhibitor as the top layer. After the top layer is solidified, plates can be incubated for 10-16 days at 37° C. under 5% CO2 to allow colony outgrowth. After incubation, the colonies can be stained by overlaying the agar with a solution of MTT (3-[4,5-dimethyl-thiazol-2-yl]-2,5-diphenyltetrazolium bromide, Thiazolyl blue) (1 mg/mL in PBS). Colonies can be counted and the IC50's can be determined.
As for `Cc1cn(CC2CN(C(=O)C3CN(C4c5ccc(Cl)cc5CCc5cc(Br)cnc54)CCN3C(=O)OC(C)(C)C)CCS2(=O)=O)cn1` (centres unmarked) [Example 150], the IC50 lay in the range of 0.05 to 30 nM. Still for that read-out and setting: the figure for `Cc1cn(CC[C@@H]2CCCN2C(=O)[C@H]2CN(C3c4ccc(Cl)cc4CCc4cc(Br)cnc43)CCN2C(=O)OC2CCCCC2)cn1` (some centres unmarked) [Example 216] is 0.05 to 30 nM; for `CC(C)(C)OC(=O)N1CCN(C2c3ccc(Cl)cc3CCc3cc(Br)cnc32)CC1C(=O)N1CCCCC1CCCn1ccnc1` (single isomer, unassigned) [Example 145] it is 0.5 to 30 nM. On the same count and under the same terms, the figure for `CC(C)(C)OC(=O)N1CCN(C2c3ccc(Cl)cc3CCc3cc(Br)cnc32)CC1C(=O)N1CCS(=O)(=O)C(Cc2c[nH]cn2)C1` (centres unmarked) [Example 155] is 0.05 to 30 nM. For the compound `Cc1cn(C[C@@H]2CCCN(C(=O)[C@H]3CN([C@H]4c5ccc(Cl)cc5CCc5cc(Br)cnc54)CCN3C(=O)OCC(C)(C)C)C2)cn1` [Example 174], the IC50 is 0.05 to 30 nM.

In turn, `Cc1cn(CC2(O)CCCN(C(=O)[C@H]3CN([C@H]4c5ccc(Cl)cc5CCc5cccnc54)CCN3C(=O)OCc3ccccc3)C2)cn1` (single isomer, unassigned) [Example 422] came in with an IC50 of 0.05 to 30 nM. Still for that read-out and setting: then `Cc1nccn1CC1CCCN(C(=O)C2CN(C3c4ncccc4CCc4cccc(Cl)c43)CCN2C(=O)OC(C)(C)C)C1` (centres unmarked) [Example 395], with 0.05 to 30 nM; and `Cc1nccn1CC1CCCN(C(=O)C2CN(C3c4ncccc4CCc4cccc(Cl)c43)CCN2C(=O)OC(C)(C)C)C1` (single isomer, unassigned) [Example 396], with 0.05 to 30 nM.

`Cc1cn(C[C@@H]2CN(C(=O)[C@H]3CN([C@@H]4c5ccc(Cl)cc5CCc5cc(Br)cnc54)CCN3C(=O)OC3CCCCC3)CCS2(=O)=O)cn1` [Example 209] yielded an IC50 of 0.05 to 30 nM. On the same count and under the same terms, then `Cc1cncn1C[C@H]1CN(C(=O)[C@H]2CN([C@H]3c4ccc(Cl)cc4CCc4cc(Br)cnc43)CCN2C(=O)OC(C)(C)C)CCS1(=O)=O` [Example 154], with 0.05 to 30 nM. On the same count and under the same terms, then `Cc1cn(CC2CCCN(C(=O)C3CN(C4c5ccccc5CCc5cc(Cl)cnc54)CCN3C(=O)OCC3CC3)C2)cn1` (centres unmarked) [Example 300], with 0.05 to 30 nM; and `Cc1cn(CC2CCCN(C(=O)C3CN(C4c5ccc(Cl)cc5CCc5cc(Cl)cnc54)CCN3C(=O)OCC(C)(C)C)C2)cn1` (centres unmarked) [Example 233], with 0.05 to 30 nM; and `Cc1cn(C[C@H]2CCCN(C(=O)[C@H]3CN([C@@H]4c5ccc(Cl)cc5CCc5cc(Br)cnc54)CCN3C(=O)OC3CCCCC3)C2)cn1` [Example 185], with 0.05 to 30 nM. For `Cc1cn(CCC2CCCN2C(=O)C2CN(C3c4ccc(Cl)cc4CCc4cccnc43)CCN2C(=O)OC2CCCCC2)cn1` (single isomer, unassigned) [47(S)], the IC50 is 0.05 to 30 nM. The same measure, in the same setting: then `Cc1cn(C[C@H]2CCCN(C(=O)[C@H]3CN([C@H]4c5ccccc5CCc5cc(Cl)cnc54)CCN3C(=O)NC3CCCCC3)C2)cn1` [Example 318], with 0.05 to 30 nM.

On to `Cc1cn(CC2CCCN(C(=O)C3CN(C4c5ccccc5CCc5cc(Cl)cnc54)CCN3C(=O)OCC(C)(C)C)C2)cn1` (centres unmarked) [Example 298], for which the IC50 was in the range of 0.05 to 30 nM. Same read-out and setting: the figure for `Cc1cn(C[C@@H]2CCCN(C(=O)[C@H]3CN([C@H]4c5ccc(Cl)cc5CCc5cc(Br)cnc54)CCN3C(=O)OC(C)C)C2)cn1` [Example 170] is 0.05 to 30 nM; for `Cc1cn(C[C@@H]2CCCN(C(=O)[C@H]3CN([C@H]4c5ccc(Cl)cc5CCc5cc(Cl)cnc54)CCN3C(=O)OCC(C)(C)C)C2)cn1` [Example 234] it is 0.05 to 30 nM; for `Cc1cn(CC2CCCN(C(=O)C3CN(C4c5ccc(Cl)cc5CCc5cccnc54)CCN3C(=O)NC(C)(C)C)C2)cn1` (centres unmarked) [Example 50] it is 0.5 to 30 nM. Still for that read-out and setting: then `Cc1nccn1CC1CN(C(=O)C2CN(C3c4ccc(Cl)cc4CCc4cccnc43)CCN2C(=O)OC(C)(C)C)CCS1(=O)=O` (centres unmarked) [35(E)], with 0.05 to 30 nM; and `Cc1cn(C[C@@H]2CCCN(C(=O)[C@H]3CN([C@H]4c5ccc(Cl)cc5CCc5cc(Br)cnc54)CCN3C(=O)C3(C)CC3)C2)cn1` [Example 201], with 0.05 to 30 nM; and `Cc1cn(C[C@H]2CCCN(C(=O)[C@H]3CN([C@@H]4c5ccc(Cl)cc5CCc5cc(Br)cnc54)CCN3C(=O)NC(C)(C)C)C2)cn1` [Example 191], with 0.05 to 30 nM. Same read-out and setting: then `CC1(Cn2ccnc2)CCCN(C(=O)[C@H]2CN([C@H]3c4ccc(Cl)cc4CCc4cccnc43)CCN2C(=O)OC2CCCCC2)C1` (some centres unmarked) [Example 415], with 0.05 to 30 nM. The compound `Cc1cn(C[C@H]2CN(C(=O)[C@H]3CN([C@H]4c5ccc(Cl)cc5CCc5cc(Br)cnc54)CCN3C(=O)OC3CCCCC3)CCS2(=O)=O)cn1` [Example 211] gave an IC50 of 0.05 to 30 nM. On the same count and under the same terms, then `Cc1cn(CC2CCCN(C(=O)C3CN(C4c5ncccc5CCc5cccc(Cl)c54)CCN3C(=O)OC3CCCCC3)C2)cn1` (single isomer, unassigned) [Example 391], with 0.05 to 30 nM; and `Cc1cn(C[C@]2(O)CCCN(C(=O)[C@H]3CN([C@H]4c5ccc(Cl)cc5CCc5cccnc54)CCN3C(=O)OC3CCCCC3)C2)cn1` (stereo in doubt) [Example 419], with 0.05 to 30 nM. The compound `Cc1cn(C[C@@H]2CCCN(C(=O)[C@H]3CN([C@@H]4c5ccccc5CCc5cc(Cl)cnc54)CCN3C(=O)NC(C)(C)C)C2)cn1` [Example 301] gave an IC50 of 0.05 to 30 nM. Compound `Cc1cn(C[C@@H]2CCCN(C(=O)[C@H]3CN([C@@H]4c5ccc(Cl)cc5CCc5cc(Br)cnc54)CCN3C(=O)OCC(C)(C)C)C2)cn1` [Example 173] had an IC50 of 0.05 to 30 nM.

`Cc1cn(C[C@@]2(C)CCCN(C(=O)[C@H]3CN([C@H]4c5ccc(Cl)cc5CCc5cccnc54)CCN3C(=O)OC3CCCCC3)C2)cn1` [Example 416] showed an IC50 of 0.05 to 30 nM.

Take `Cc1cn(C[C@@H]2CCCN(C(=O)[C@H]3CN([C@@H]4c5ccc(Cl)cc5CCc5cc(Cl)cnc54)CCN3C(=O)C(C)(C)C)C2)cn1` [Example 239]: the IC50 is 0.05 to 30 nM. Regarding `Cc1cn(C[C@@H]2CCCN(C(=O)[C@H]3CN([C@H]4c5ccccc5CCc5cc(Cl)cnc54)CCN3C(=O)NC(C)(C)C)C2)cn1` [Example 302], the IC50 lay within 0.05 to 30 nM. Still for that read-out and setting: the figure for `Cc1cn(CC2CCCCN(C(=O)C3CN(C4c5ccc(Cl)cc5CCc5cccnc54)CCN3C(=O)OC3CCCCC3)C2)cn1` (single isomer, unassigned) [Example 409] is 0.05 to 30 nM; for `Cc1cn(CC[C@H]2CCCN2C(=O)[C@H]2CN(C3c4ccc(Cl)cc4CCc4cc(Br)cnc43)CCN2C(=O)OC2CCCCC2)cn1` (some centres unmarked) [Example 215] it is 0.05 to 30 nM. Still for that read-out and setting: then `Cc1cn(C[C@H]2CCCN(C(=O)[C@H]3CN([C@H]4c5ccccc5CCc5cc(Cl)cnc54)CCN3C(=O)C(C)(C)C)C2)cn1` [Example 316], with 0.05 to 30 nM; and `Cc1cn(C[C@@H]2CCCN(C(=O)[C@H]3CN([C@@H]4c5ccc(Cl)cc5CCc5cc(Cl)cnc54)CCN3C(=O)OC(C)C)C2)cn1` [Example 231], with 0.05 to 30 nM. On the same count and under the same terms, the figure for `Cc1cn(CC2CCCN(C(=O)C3CN(C4c5ccc(Cl)cc5CCc5cc(Br)cnc54)CCN3C(=O)C(C)(C)C)C2)cn1` (centres unmarked) [Example 180] is 0.05 to 30 nM; for `Cc1cn(C[C@@H]2CCCN(C(=O)[C@H]3CN([C@@H]4c5ccccc5CCc5cc(Cl)cnc54)CCN3C(=O)OCC3CC3)C2)cn1` [Example 299] it is 0.05 to 30 nM.

In the case of `Cc1nccn1C[C@@H]1CCCN(C(=O)[C@H]2CN([C@H]3c4ccc(Cl)cc4CCc4cccnc43)CCN2C(=O)OC(C)(C)C)C1` [Example 30], the half-maximal inhibitory concentration (IC50) is 0.5 to 30 nM. Same read-out and setting: then `Cc1cn(CC2CN(C(=O)C3CN(C4c5ccc(Cl)cc5CCc5cccnc54)CCN3C(=O)OC3CCCCC3)CCS2(=O)=O)cn1` (single isomer, unassigned) [47(L)], with 0.05 to 30 nM; and `Cc1c(CO)ncn1CC1CCCN(C(=O)C2CN(C3c4ccc(Cl)cc4CCc4cc(Br)cnc43)CCN2C(=O)OC(C)(C)C)C1` (centres unmarked) [Example 160], with 0.05 to 30 nM. In the case of `Cc1cn(C[C@@H]2CN(C(=O)[C@H]3CN([C@H]4c5ccc(Cl)cc5CCc5cc(Br)cnc54)CCN3C(=O)OC3CCCCC3)CCS2(=O)=O)cn1` [Example 210], the half-maximal inhibitory concentration (IC50) is 0.05 to 30 nM.

`Cc1cn(C[C@@H]2CCCN(C(=O)[C@H]3CN([C@H]4c5ccc(Cl)cc5CCc5cc(Cl)cnc54)CCN3C(=O)OC(C)C)C2)cn1` [Example 232] yielded an IC50 of 0.05 to 30 nM.
